This assay has as its target T1, FRAP1 (mTOR) (Homo sapiens, UniProt P42345).
T1 construct: purchased Thermo Fisher Scientific (Life Technologies) SelectScreen
The assay is described as follows: SelectScreen Z'LYTE. Format: biochemical. Summed up: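 SelectScreen broad panel; activity (Z'LYTE, Adapta) plus binding formats. ATP: Km app for CSF1R Z'LYTE; 10 for CAMK1 Adapta. Readout = % per kinase.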

These results are taken from article PMC6934184, “Selective DNA-PKcs inhibition extends the therapeutic index of localized radiotherapy and chemotherapy” (The Journal of Clinical Investigation, 2019).

On to `CN(C(=O)CN1CCOCC1)c1ccc2sc3c(-c4cccc5c(=O)cc(N6CC7CCC(C6)O7)oc45)cccc3c2c1` [NU5455], for which at 1 µM the inhibition was 5.7%.
